In ChEMBL document CHEMBL5365543, “Benzamidine Conjugation Converts Expelled Potential Active Agents into Antifungals against Drug-Resistant Fungi” (J Med Chem, 2023):
In brackets after ≈: the same amount, converted by molar mass. Activity calls are given as the source filed them. The rule behind the calls is not given here.

How the values were obtained:
Candida albicans [1] = assay: Antifungal activity against clinical isolate fluconazole-resistant Candida albicans G5 harbouring MRR1 mutation overexpressing MdrL assessed as inhibition of fungal growth measured after 24 hrs by CLSI based microtiter plate analysis; format: functional
Candida albicans [2] = assay: Antifungal activity against clinical isolate fluconazole-resistant Candida albicans DSY296 harbouring TAC1 mutation overexpressing efflux pump CdrL and Cdr2 assessed as inhibition of fungal growth measured after 24 hrs by CLSI based microtiter plate analysis; format: functional
[3] = Induction of drug resistance in wild-type Candida albicans SC5314 assessed as change in MIC at 0.5 times of MIC measured after 30 passages by broth microdilution method (reference value: 2 microg/ml); format: functional
[4] = Induction of DNA damage in human HBE cells assessed as increase in gammaH2AX level at 8 microg/ml by Western blotting analysis; format: toxicity, cell-based; details: dose 8 µg/ml
Candida albicans [5] = assay: Antifungal activity against clinical isolate fluconazole-resistant Candida albicans Gu5 harbouring TAC1 mutation overexpressing efflux pump CdrL and Cdr2 assessed as inhibition of fungal growth measured after 24 hrs by CLSI based microtiter plate analysis; format: functional
Nakaseomyces glabratus = assay: Antifungal activity against clinical isolate fluconazole-resistant Candida glabrata CG2 assessed as inhibition of fungal growth measured after 24 hrs by CLSI based microtiter plate analysis; format: functional
Candida albicans [6] = assay: Antifungal activity against clinical isolate Candida albicans YEM15 overexpressing efflux pump CdrL and Cdr2 assessed as inhibition of fungal growth measured after 24 hrs by CLSI based microtiter plate analysis; format: functional
[Candida] auris [7] = Antifungal activity against clinical isolate fluconazole-resistant Candida auris CBS12776 assessed as inhibition of fungal growth measured after 24 hrs by CLSI based microtiter plate analysis; format: functional; details: Candidozyma auris
Cryptococcus neoformans = assay: Antifungal activity against clinical isolate fluconazole-resistant Cryptococcus neoformans H99 assessed as inhibition of fungal growth measured after 24 hrs by CLSI based microtiter plate analysis; format: functional
Candida albicans [8] = assay: Antifungal activity against wild-type Candida albicans SC5314 assessed as inhibition of fungal growth measured after 24 hrs by CLSI based microtiter plate analysis; format: functional; details: Candida albicans, SC5314, 24 h, read-out: MIC80
Candida tropicalis = assay: Antifungal activity against clinical isolate fluconazole-resistant Candida tropicalis CT10 assessed as inhibition of fungal growth measured after 24 hrs by CLSI based microtiter plate analysis; format: functional
Candida albicans [9] = assay: Antifungal activity against clinical isolate Candida albicans SCUPC2R14MPG2A harbouring UPC2 mutation overexpressing […] Erg11 assessed as inhibition of fungal growth measured after 24 hrs by CLSI based microtiter plate analysis; format: functional
Candida albicans [10] = assay: Antifungal activity against clinical isolate Candida albicans YEM13 overexpressing efflux pump MdrL assessed as inhibition of fungal growth measured after 24 hrs by CLSI based microtiter plate analysis; format: functional
[Candida] auris [11] = Antifungal activity against clinical isolate fluconazole-resistant Candida auris CBS12774 assessed as inhibition of fungal growth measured after 24 hrs by CLSI based microtiter plate analysis; format: functional; details: Candidozyma auris
Candida albicans [12] = assay: microbe, parasite or virus in culture; format: functional; details: DSY654, time 24 hrs
Description: Antifungal activity against efflux pump-deficient Candida albicans DSY654 assessed as inhibition of fungal growth measured after 24 hrs by CLSI based microtiter plate analysis

Candida albicans [13] = assay: Antifungal activity against clinical isolate fluconazole-resistant Candida albicans CA632 assessed as inhibition of fungal growth measured after 24 hrs by CLSI based microtiter plate analysis; format: functional
Candida albicans [14] = assay: Antifungal activity against clinical isolate fluconazole-resistant Candida albicans Gu5 infected in BALB/c mouse assessed as fold reduction in kidney fungal burden at 6 mg/kg, ip administered on day 1 and day 3 post fungal infection measured after 7 days; format: functional; details: time 7.0 day
[15] = Toxicity in BALB/c mouse infected with clinical isolate fluconazole-resistant Candida albicans Gu5 assessed as animal survival at 6 mg/kg, ip administered on day 1 and day 3 post fungal infection measured after 4 days; format: organism-based; details: in vivo, 96 h, time 4 day

SMILES | MIC80 (Candida albicans [1]) [µg/mL] | MIC80 (Candida albicans [2]) [µg/mL] | MIC [3] [µg/mL] | Activity [4] | MIC80 (Candida albicans [5]) [µg/mL] | MIC80 (Nakaseomyces glabratus) [µg/mL] | MIC80 (Candida albicans [6]) [µg/mL] | MIC80 ([Candida] auris [7]) [µg/mL] | MIC80 (Cryptococcus neoformans) [µg/mL] | MIC80 (Candida albicans [8]) [µg/mL] | MIC80 (Candida tropicalis) [µg/mL] | MIC80 (Candida albicans [9]) [µg/mL] | MIC80 (Candida albicans [10]) [µg/mL] | MIC80 ([Candida] auris [11]) [µg/mL] | MIC80 (Candida albicans [12]) [µg/mL] | MIC80 (Candida albicans [13]) [µg/mL] | Activity (Candida albicans [14]) | Activity [15]
OC(Cn1cncn1)(Cn1cncn1)c1ccc(F)cc1F [FLUCONAZOLE] | > 128 | > 128 | 128 | Non-Toxic | > 128 | 64 (≈ 209 µM) | 64 (≈ 209 µM) | > 128 | 2 (≈ 6.53 µM) | 2 (≈ 6.53 µM) | > 128 | > 128 | 64 (≈ 209 µM) | > 128 | 0.5 (≈ 1.63 µM) | > 128 | – | –
C=C1C(=O)[C@@]2(C)CC[C@@H]3[C@@]1(CC[C@H]1[C@@]3(C)CCC[C@@]1(C)C(=O)OCCC[P+](c1ccccc1)(c1ccccc1)c1ccccc1)C2.[I-] | – | – | – | – | – | – | – | – | – | – | – | – | – | – | – | – | inactive | Toxic
